Measurements as given in publication PMC10812672, “Short Antimicrobial Peptide Derived from the Venom Gland Transcriptome of Pamphobeteus verdolaga Increases Gentamicin Susceptibility of Multidrug-Resistant Klebsiella pneumoniae” (Antibiotics, 2023).
Ends that are not written are not given here.

Tests used:
[1] = tested on: multidrug-resistant (MDR) strain of K. pneumoniae, clinical isolate; assay: microbe, parasite or virus in culture; assay type: cell-based, Klebsiella pneumoniae; conditions: for IC50 / MIC / inhibition at 100 µM: Klebsiella pneumoniae; for MIC / Classification at 10^6 CFU/mL: MDR K. pneumoniae clinical isolate; for Classification at 10^6 CFU/mL: CLSI classification; for inhibition at 100 µM: read-out: maximum growth inhibition
Procedure: A multidrug-resistant (MDR) strain of K. pneumoniae was identified and isolated from a tertiary-level hospital in Medellin, Colombia, using the VITEK-2 system (bioMérieux, Marcy-l’Étoile, France). The MDR strain was evaluated against several antibiotics at concentrations of 1.56–100 μM. […] In contrast, the strain was susceptible to doxycycline (Supplementary Figure S7g) and chloramphenicol (Supplementary Figure S7h), with MICs of 50 μM and 100 µM, respectively (Table 3). […] All of P. verdolaga’s AMPs were evaluated against the clinical isolate at concentrations of 1.56–200 µM (Supplementary Figure S8). […] A growth inhibition kinetic assay was conducted. […] All of P. verdolaga’s peptides at 100 μM induced morphological changes in the MDR K. pneumoniae, indicating membrane interactions, even though no significant inhibition was observed (Supplementary Figure S9).
The evaluation of the antimicrobial activity of the peptides was conducted using the CLSI’s broth microdilution method for bacterial susceptibility testing. For the screening phase, peptides were evaluated at a single 30 μM concentration, in triplicate and in three independent assays, against the E. coli ATCC® 8739, E. coli ATCC® 25922, S. aureus ATCC® 6538, or S. aureus ATCC® 29213 reference USP and CLSI strains. For the determination of MIC, MBC, or IC50, peptides or antibiotics were evaluated in concentrations between 1.56–200 µM. These evaluations were conducted in triplicate and in three independent assays, against the E. coli ATCC® 25922, S. aureus ATCC® 29213, E. faecalis ATCC® 49532, P. aeruginosa ATCC® 9027, and K. pneumoniae ATCC® BAA-1705, or the clinically isolated MDR strain. In detail, 1 mL of a glycerol stock solution of the ATCC® or clinically isolated bacterial strain was added to 9 mL of Mueller-Hinton Broth and incubated for 18 h, 180 rpm and 37 °C (Incubator 1000, Heidolph Instruments, Schwabach, Germany). After the incubation, 1 mL of the previous solution was transferred to a new recipient containing 9 mL of fresh Mueller-Hinton broth and incubated for 4 h, 180 rpm and 37 °C (Incubator 1000, Heidolph Instruments, Schwabach, Germany). During the second incubation, the peptides or the antibiotics were dissolved in PBS pH 7.20 in concentrations between 19.53–2500 µM (MC5 Micro Balance, Sartorius AG, Göttingen, Germany). An amount of 10 µL of either peptide or antibiotic was dispensed in triplicate in 96-well flat bottom culture plates, along with 10 µL of PBS (Negative activity control), BTM-P1 (Positive activity control), or 10 µL of Mueller-Hinton broth (Blank); then, 110 µL of Mueller-Hinton broth was poured in all wells. Following this, the bacteria were suspended in Mueller-Hinton broth up to a concentration of approximately 1.50 × 10^8 CFU/mL, as measured by optical density at 600 nm between 0.06 to 0.11 (0.5 McFarland standard), in a Multiskan SkyHigh spectrophotometer (ThermoFisher Scientific, Waltham, MA, USA). Amounts of 5 µL of the 1.50 × 10^8 CFU/mL suspension were added to each well (except for the blank) for a final well concentration of approximately 6 × 10^6 CFU/mL. The plate was incubated for 24 h at 37 °C (BE 500, Memmert GmbH, Büchenbach, Germany) and optical density was measured at 600 nm in a Multiskan SkyHigh spectrophotometer (ThermoFisher Scientific, Waltham, MI, USA). Following the measurement of optical density, plates were visually inspected to determine the MIC. Subsequently, 100 µL of the concentration associated to the MIC and 100 µL of the next higher concentration were added to Petri dishes containing Mueller-Hinton Agar. The dishes were then incubated for 24 h at 37 °C (BE 500, Memmert GmbH, Büchenbach, Germany). After incubation, the Petri dishes were visually inspected, and the MBC was determined in the absence of growth. IC50 values were interpolated from regressions with correlation values above 0.70. […]

[2] = tested on: E. coli ATCC® 25922; assay type: cell-based, Escherichia coli; conditions: CLSI broth microdilution, Mueller-Hinton broth, peptide 30 µM, ~6 × 10^6 CFU/mL, 24 h 37 °C, OD600; triplicate, three independent assays; NA = no activity
Procedure: (§1) Activity screening was conducted using the broth microdilution method at a fixed peptide concentration of 30 µM against E. coli ATCC® 8739 and 25922, as well as S. aureus ATCC® 6538 and 29213. The bacterial density used for screening was approximately 6 × 10^6 CFU/mL [30]. Peptide activity measurements were conducted in terms of the growth inhibition percentage. No dose-response curves were generated during the screening phase as a resource optimization strategy in the initial activity evaluation. […] For S. aureus ATCC® 6538 and S. aureus ATCC® 29213, growth inhibition ranged from 0% to 140% and 0% to 98%, respectively (Table 1).
(§2) The evaluation of the antimicrobial activity of the peptides was conducted using the CLSI’s broth microdilution method for bacterial susceptibility testing. For the screening phase, peptides were evaluated at a single 30 μM concentration, in triplicate and in three independent assays, against the E. coli ATCC® 8739, E. coli ATCC® 25922, S. aureus ATCC® 6538, or S. aureus ATCC® 29213 reference USP and CLSI strains. For the determination of MIC, MBC, or IC50, peptides or antibiotics were evaluated in concentrations between 1.56–200 µM. These evaluations were conducted in triplicate and in three independent assays, against the E. coli ATCC® 25922, S. aureus ATCC® 29213, E. faecalis ATCC® 49532, P. aeruginosa ATCC® 9027, and K. pneumoniae ATCC® BAA-1705, or the clinically isolated MDR strain. In detail, 1 mL of a glycerol stock solution of the ATCC® or clinically isolated bacterial strain was added to 9 mL of Mueller-Hinton Broth and incubated for 18 h, 180 rpm and 37 °C (Incubator 1000, Heidolph Instruments, Schwabach, Germany). After the incubation, 1 mL of the previous solution was transferred to a new recipient containing 9 mL of fresh Mueller-Hinton broth and incubated for 4 h, 180 rpm and 37 °C (Incubator 1000, Heidolph Instruments, Schwabach, Germany). During the second incubation, the peptides or the antibiotics were dissolved in PBS pH 7.20 in concentrations between 19.53–2500 µM (MC5 Micro Balance, Sartorius AG, Göttingen, Germany). An amount of 10 µL of either peptide or antibiotic was dispensed in triplicate in 96-well flat bottom culture plates, along with 10 µL of PBS (Negative activity control), BTM-P1 (Positive activity control), or 10 µL of Mueller-Hinton broth (Blank); then, 110 µL of Mueller-Hinton broth was poured in all wells. Following this, the bacteria were suspended in Mueller-Hinton broth up to a concentration of approximately 1.50 × 10^8 CFU/mL, as measured by optical density at 600 nm between 0.06 to 0.11 (0.5 McFarland standard), in a Multiskan SkyHigh spectrophotometer (ThermoFisher Scientific, Waltham, MA, USA). Amounts of 5 µL of the 1.50 × 10^8 CFU/mL suspension were added to each well (except for the blank) for a final well concentration of approximately 6 × 10^6 CFU/mL. The plate was incubated for 24 h at 37 °C (BE 500, Memmert GmbH, Büchenbach, Germany) and optical density was measured at 600 nm in a Multiskan SkyHigh spectrophotometer (ThermoFisher Scientific, Waltham, MI, USA). Following the measurement of optical density, plates were visually inspected to determine the MIC. Subsequently, 100 µL of the concentration associated to the MIC and 100 µL of the next higher concentration were added to Petri dishes containing Mueller-Hinton Agar. The dishes were then incubated for 24 h at 37 °C (BE 500, Memmert GmbH, Büchenbach, Germany). After incubation, the Petri dishes were visually inspected, and the MBC was determined in the absence of growth. IC50 values were interpolated from regressions with correlation values above 0.70. Growth inhibition percentages were calculated as follows: Growth inhibition %=1−AbsPEPTIDE or ANTIBIOTIC−Median AbsBLANK/Median AbsPBS−Median AbsBLANK×100

[3] = tested on: E. coli ATCC® 8739; assay type: cell-based, Escherichia coli; conditions: CLSI broth microdilution, Mueller-Hinton broth, peptide 30 µM, ~6 × 10^6 CFU/mL, 24 h 37 °C, OD600; triplicate, three independent assays; NA = no activity
Procedure: as §1, §2

[4] = tested on: S. aureus ATCC® 29213; assay type: cell-based, Staphylococcus aureus; conditions: CLSI broth microdilution, Mueller-Hinton broth, peptide 30 µM, ~6 × 10^6 CFU/mL, 24 h 37 °C, OD600; triplicate, three independent assays; NA = no activity
Procedure: as §1, §2

[5] = tested on: S. aureus ATCC® 6538; assay type: cell-based, Staphylococcus aureus; conditions: CLSI broth microdilution, Mueller-Hinton broth, peptide 30 µM, ~6 × 10^6 CFU/mL, 24 h 37 °C, OD600; triplicate, three independent assays; NA = no activity
Procedure: as §1, §2

[6] = tested on: E. coli ATCC® 25922; assay type: cell-based, Escherichia coli; conditions: 24 h 37 °C; for MIC: 1.56–200 µM, visual inspection, triplicate, three independent assays
Procedure: The nine AMPs identified in the initial screening were evaluated at concentrations between 1.56–200 µM, against E. coli ATCC® 25922, S. aureus ATCC® 29213, E. faecalis ATCC® 49532, P. aeruginosa ATCC® 9027, and K. pneumoniae ATCC® BAA-1705 (Supplementary Figures S2–S6). […] Only PvAMP66 and PvAMP172 reached the MBC for S. aureus at 50 µM and 100 µM, respectively (Table 2).
as §2

[7] = 24 h, peptides 1.56–200 µM, antibiotics 1.56–100 µM, 24 h 37 °C

O=C(N[C@H](CO)[C@H](O)c1ccc([N+](=O)[O-])cc1)C(Cl)Cl [Chloramphenicol, chloramphenicol]
IC50 [1]: 56.2 µM
MIC [1, 7]: 100 µM
MIC [1]: 4.04 µg/mL
Classification at 10^6 CFU/mL [1]: Susceptible

C[C@H]1c2cccc(O)c2C(=O)C2=C(O)[C@]3(O)C(=O)C(C(N)=O)=C(O)[C@@H](N(C)C)[C@@H]3[C@@H](O)[C@@H]21 [Doxycycline, doxycycline]
IC50 [1]: 38.1 µM
MIC [1, 7]: 50 µM
MIC [1]: 3.21 µg/mL
Classification at 10^6 CFU/mL [1]: Susceptible

CC1(C)S[C@@H]2[C@H](NC(=O)[C@H](N)c3ccccc3)C(=O)N2[C@H]1C(=O)O [ampicillin]
inhibition at 100 µM [1]: ≤ 20%

Cc1onc(-c2c(Cl)cccc2Cl)c1C(=O)N[C@@H]1C(=O)N2[C@@H]1SC(C)(C)[C@@H]2C(=O)O [dicloxacillin]
inhibition at 100 µM [1]: ≤ 20%

CN(C)[C@@H]1C(O)=C(C(N)=O)C(=O)[C@@]2(O)C(O)=C3C(=O)c4c(O)cccc4[C@@](C)(O)[C@H]3[C@H](O)[C@@H]12 [oxytetracycline]
inhibition at 100 µM [1]: ≤ 20%

[H]/N=C(/N)N[C@H]1[C@H](O)[C@@H](O)[C@H](O[C@@H]2O[C@@H](C)[C@](O)(C=O)[C@H]2O[C@@H]2O[C@@H](CO)[C@H](O)[C@@H](O)[C@@H]2NC)[C@@H](N/C(N)=N\[H])[C@@H]1O [streptomycin]
inhibition at 100 µM [1]: ≤ 20%

CRRVCYKNR CVTYCRG (disulfide) [PvAMP169, predicted P. verdolaga AMP]
E. coli ATCC® 25922 (Inhibition %) [2]: 55.69 ± 4.65 %
inhibition [3]: 13.6 ± 5.92%

FLGKNLG-NH2 [PvAMP15]
inhibition [4]: 27.5 ± 29.7%
S. aureus ATCC® 6538 (Inhibition %) [5]: 43.62 ± 10.56 %

FSGNKLLPG-NH2 [PvAMP81]
E. coli ATCC® 25922 (Inhibition %) [2]: 31.88 ± 2.18 %
inhibition [3]: 8.57 ± 4.46%

ILKPFMLRR-NH2 [PvAMP84]
inhibition [2]: 11.3 ± 3.72%
E. coli ATCC® 8739 (Inhibition %) [3]: 24.29 ± 6.74 %

LLSKIFG-NH2 [PvAMP16]
inhibition [4]: 13.8 ± 6.48%
S. aureus ATCC® 6538 (Inhibition %) [5]: 42.06 ± 4.29 %

LLTGIKS-NH2 [PvAMP30]
inhibition [4]: 7.34 ± 10.3%
S. aureus ATCC® 6538 (Inhibition %) [5]: 35.52 ± 7.29 %

SLFKFLA-NH2 [PvAMP8]
inhibition [4]: 11.9 ± 8.93%
S. aureus ATCC® 6538 (Inhibition %) [5]: 47.95 ± 3.62 %

SLWGMWR-NH2 [PvAMP7]
S. aureus ATCC® 29213 (Inhibition %) [4]: 23.66 ± 3.34 %
S. aureus ATCC® 6538 (Inhibition %) [5]: 37.89 ± 1.50 %
E. coli ATCC® 25922 (Inhibition %) [2]: 18.21 ± 2.54 %
E. coli ATCC® 8739 (Inhibition %) [3]: 26.74 ± 0.68 %
MIC [6]: 200 µM

YRARCVIYC-NH2 (disulfide) [PvAMP69, predicted P. verdolaga AMP]
S. aureus ATCC® 29213 (Inhibition %) [4]: 29.81 ± 3.31 %
S. aureus ATCC® 6538 (Inhibition %) [5]: 32.32 ± 7.00 %
E. coli ATCC® 25922 (Inhibition %) [2]: 19.08 ± 0.12 %
inhibition [3]: 1.75 ± 9.78%
MIC [6]: 200 µM
MBC ([6]; plating on Mueller-Hinton agar, absence of growth): 200 µM

penicillin
maximum growth inhibition ([1]; MDR K. pneumoniae, at 100 μM, complete resistance): ≤ 20%
